Measured values as given in patent US10597388B2, “Pyridazinone herbicides” (FMC CORPORATION, priority 2014, dated 2020).

Experiments:
Assay in all cases: Test C greenhouse herbicide test, pre- and postemergence
Type in all cases: in vivo
[1] = system: johnsongrass (Sorghum halepense)
Procedure, shortened: (§1)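 Preemergence: seeds sown in a loam soil–sand blend and sprayed with test chemicals in a non-phytotoxic solvent mixture containing surfactant. Postemergence: plants grown in peat-based medium and treated at 2 to 18 cm (1- to 4-leaf stage). After 13 to 15 d in a greenhouse, injury was visually rated 0–100 against controls.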

[2] = system: wheat (winter wheat, Triticum aestivum)
Procedure, shortened: as §1

soybean (Glycine max) = system: soybean (Glycine max)
Procedure, shortened: as §1

[3] = system: waterhemp (common waterhemp, Amaranthus rudis)
Procedure, shortened: as §1

[4] = system: oilseed rape (Brassica napus)
Procedure, shortened: as §1

[5] = system: nutsedge, yellow (yellow nutsedge, Cyperus esculentus)
Procedure, shortened: as §1

[6] = system: lambsquarters (Chenopodium album)
Procedure, shortened: as §1

[7] = system: crabgrass, large (large crabgrass, Digitaria sanguinalis)
Procedure, shortened: as §1

[8] = system: galium (catchweed bedstraw, Galium aparine)
Procedure, shortened: as §1

[9] = system: foxtail, giant (giant foxtail, Setaria faberii)
Procedure, shortened: as §1

[10] = system: ragweed (common ragweed, Ambrosia elatior)
Procedure, shortened: as §1

[11] = system: barnyardgrass (Echinochloa crus-galli); details: Postemergence
Procedure, shortened: as §1

[12] = Postemergence, 31 g ai/ha, scale 0 to 100 (0 no effect, 100 complete control)
[13] = Postemergence, 62 g ai/ha, 0 to 100 scale (0 no effect, 100 complete control)
[14] = Postemergence, 250 g ai/ha, scale 0 to 100, 0 no effect, 100 complete control, 13 to 15 d
[15] = postemergence, 125 g ai/ha, scale 0 to 100, 0 no effect, 100 complete control

COC(=O)Oc1c(C)nn(C)c(=O)c1-c1ccc(F)c2ccccc12 [Compound 130]
Plant response rating, Johnsongrass [1, 12]: 5
Johnsongrass plant response rating [1, 13]: 5
Plant response rating, Johnsongrass [1, 14]: 20
Johnsongrass plant response rating [1, 15]: 5
Plant response rating, Wheat [2, 12]: 0
Wheat plant response rating [2, 13]: 5
Plant response rating, Wheat [2, 14]: 15
Wheat plant response rating [2, 15]: 10
Plant response rating, Soybean (soybean (Glycine max); [12]): 10
Soybean plant response rating (soybean (Glycine max); [13]): 15
Plant response rating, Soybean (soybean (Glycine max); [14]): 50
Soybean plant response rating (soybean (Glycine max); [15]): 25
Plant response rating, Waterhemp [3, 12]: 70
Waterhemp plant response rating [3, 13]: 85
Plant response rating, Waterhemp [3, 14]: 98
Waterhemp plant response rating [3, 15]: 80
Plant response rating, Oilseed Rape [4, 12]: 0
Oilseed Rape plant response rating [4, 13]: 0
Plant response rating, Oilseed Rape [4, 14]: 0
Oilseed Rape plant response rating [4, 15]: 0
Plant response rating, Nutsedge, Yellow [5, 12]: 55
Nutsedge, Yellow plant response rating [5, 13]: 75
Plant response rating, Nutsedge, Yellow [5, 14]: 85
Nutsedge, Yellow plant response rating [5, 15]: 80
Plant response rating, Lambsquarters [6, 12]: 90
Lambsquarters plant response rating [6, 13]: 98
Plant response rating, Lambsquarters [6, 14]: 100
Lambsquarters plant response rating [6, 15]: 100
Plant response rating, Crabgrass, Large [7, 12]: 10
Crabgrass, Large plant response rating [7, 13]: 15
Plant response rating, Crabgrass, Large [7, 14]: 60
Crabgrass, Large plant response rating [7, 15]: 15
Plant response rating, Galium [8, 12]: 95
Galium plant response rating [8, 13]: 95
Plant response rating, Galium [8, 14]: 98
Galium plant response rating [8, 15]: 95
Plant response rating, Foxtail, Giant [9, 12]: 20
Foxtail, Giant plant response rating [9, 13]: 20
Plant response rating, Foxtail, Giant [9, 14]: 70
Foxtail, Giant plant response rating [9, 15]: 40
Plant response rating, Ragweed [10, 12]: 85
Ragweed plant response rating [10, 13]: 90
Plant response rating, Ragweed [10, 14]: 98
Ragweed plant response rating [10, 15]: 98
Plant response rating, Barnyardgrass ([11]; 31 g ai/ha, scale 0 to 100 (0 no effect, 100 complete control)): 30
Barnyardgrass plant response rating ([11]; 62 g ai/ha, 0 to 100 scale (0 no effect, 100 complete control)): 30
Plant response rating, Barnyardgrass ([11]; 125 g ai/ha, scale 0 to 100, 0 is no effect, 100 is complete control): 35
Plant response rating, Barnyardgrass ([11]; 250 g ai/ha, scale 0 to 100, 0 no effect, 100 complete control, 13 to 15 d): 55
